The subject of data set [1] is 6-OHDA unilateral medial forebrain bundle lesioned rat. In words: Methamphetamine-induced rotation in unilateral 6-OHDA lesioned rats. It is filed as in vivo. Conditions: for Meth-induced ipsilateral rotation vs vehicle: early treatment 10 mg/kg daily p.o. from 7 days before lesioning, meth 2.5 mg/kg s.c. on days 20 and 30.
Data set [2] shares this test system. Nature of the data set: Tyrosine hydroxylase (TH) immunoreactivity in striatum and SNc of 6-OHDA lesioned rats. It is filed as in vivo. As for the experimental part: treatment was initiated either prior to or after 6-OHDA lesioning (early and delayed treatment, respectively) as follows. (1) Early treatment: […] An estimated dose for a 250-g rat under this treatment was 10 mg/kg/day. (2) Delayed treatment: […] An estimated, clinically relevant, dose for a 250 g rat under this treatment was thus 30 mg/kg/day. Specifically for drug admixture into diet, drug was solubilized in 100% ETOH that was then added to the 16.2 g of food chow. Thereafter, the ETOH was evaporated off. […] Animals were weighed twice weekly and the amount of drug added to the chow was modified accordingly to maintain the daily required dose. […] Specifically, the 10 mg/kg oral daily drug dose in our rat studies is equivalent to the routine human daily oral dose (100 mg in a 65 kg human) of these […] used in T2DM, and the 30 mg/kg rat dose is equivalent to a threefold higher dose that is well-tolerated in humans. Following the exact same protocol described in Yin et al., 2012 [34] and Li et al., 2009 [35], anesthetized rats were injected i.c.v. with PF-00734,200 (15.4 nmole in 20 μL sterile physiological saline (n = 6)) or vehicle (sterile physiological saline, 20 μL (n = 8)) using a 25 μL Hamilton syringe at 10 min prior to 6-OHDA lesioning (Supplemental Fig. 2). The coordinates for the i.c.v. injection were 0.8 mm posterior to bregma, 1.2 mm lateral (Left) to midline, and 3.7 mm ventral to the dural surface. The rate of infusion (4 μL/min) was adjusted by a microprocessor-controlled injector mounted to the stereotaxic frame (UMP4; World Precision Instruments, Sarasota, FL, USA). The needle was slowly removed after 2 min upon completion of the injection. Following the exact same protocol described in Yin et al., 2012 [34] and Harvey et al. 2004 [36], anesthetized rats were subjected to a 6-OHDA unilateral medial forebrain bundle lesion. Briefly, 6-OHDA (2.27 μg/μL × 5 μL in 0.9% NaCl containing 0.2 mg/ml ascorbic acid) was unilaterally injected into the medial forebrain bundle (-4.4 mm AP, 1.2 mm ML relative to bregma and 8.4 mm below skull) over 4 min through a syringe pump (Micro 4, WPI, Sarasota, FL), as approved under National Health Research Institutes, Taiwan, Protocol # 102,068-A; 102,102-A. Following this procedure, all animals were monitored daily for adverse signs of health for 1 week (in line with the approved protocols). BrdU and TH localization was determined by immunohistochemistry. Serial sections of the entire brain were cut at 30 μm thickness by cryostat. One series from every sixth section was stained for TH. To control for staining variability, specimens from all experimental groups were included in every batch and reacted together in a net well tray under the same conditions. Sections were rinsed in 0.1 M phosphate buffer (PB), blocked with 4% bovine serum albumin (BSA) and 0.3% Triton x-100 in 0.1 M PB. Sections were then incubated in a primary antibody solution mouse monoclonal anti-TH diluted in 4% BSA and 0.3% Triton x-100 in 0.1 M PB, concentration 1:100 (Chemicon, Temecula, CA) and polyclonal anti-BrdU (1:500, Millipore, MA, USA) for 17-19 h at 4 °C. Sections were then rinsed in 0.1 M PB and incubated in secondary antibodies for 1 h, followed by incubation for 1 h with avidin-biotin-horseradish peroxidase complex. Thereafter, sections were mounted on slides, and coverslipped. TH and BrdU immunoreactivity was examined under a fluorescent microscope. Sections were incubated without primary antibody as a control and observers were blinded as to treatment groups. TH immunoreactivity and BrdU cell number in striatum were averaged from 3 brain sections with visible anterior commissure in each animal. TH immunoreactivity in SNc was measured every 6th Sect. (30 μm per each section) throughout the extent of midbrain. […] volume was analyzed using Cavalieri's method.

Data set [3] in a line: Body weight of 6-OHDA lesioned rats under chronic gliptin treatment. It is filed as in vivo, rat. The conditions noted are these: 12 mg/kg daily from day 7 after lesioning, one day before and 28 days after lesioning. As for the experimental part:
Gliptin treatment was initiated either prior to or after 6-OHDA lesioning (early and delayed treatment, respectively) as follows. […] Specifically for drug admixture into diet, drug was solubilized in 100% ETOH that was then added to the 16.2 g of food chow. Thereafter, the ETOH was evaporated off. […] Animals were weighed twice weekly and the amount of drug added to the chow was modified accordingly to maintain the daily required dose. […] Specifically, the 10 mg/kg oral daily drug dose in our rat studies is equivalent to the routine human daily oral dose (100 mg in a 65 kg human) of these gliptins used in T2DM, and the 30 mg/kg rat dose is equivalent to a threefold higher dose that is well-tolerated in humans.

Data set [4] has as its system P-glycoprotein. The conditions noted are these: at the level of the kidney; cited from earlier work.
The test system of data set [5] is rat rotenone model of PD. Conditions: cited from earlier work.
Data set [6] has as its system high-fat-fed mice. The conditions noted are these: cited from earlier work.
Data set [7] in a line: Rat pharmacokinetic study: plasma and brain levels after single oral dose. It is filed as in vivo. Conditions: male, Sprague-Dawley; for concentration at 105 min: po, 10 mg/kg, mean ± SEM. As to the method: A blood sample was obtained and the plasma was separated (10,000 G, 60 s, 4 °C) and frozen to -80 °C. The vasculature was immediately cleared with physiological saline, and a section through the right cerebral hemisphere was obtained and flash frozen to -80 °C.

Data set [8] deals with 6-OHDA unilateral medial forebrain bundle lesioned rat. In words: Dopamine measurements by HPLC in striatum and SNc of 6-OHDA lesioned rats. The conditions noted are these: delayed treatment, low dose 10 mg/kg daily p.o. from day 7. It is filed as in vivo.
Method: Gliptin treatment was initiated either prior to or after 6-OHDA lesioning (early and delayed treatment, respectively) as follows. […] An estimated dose for a 250-g rat under this treatment was 10 mg/kg/day. […] An estimated, clinically relevant, dose for a 250 g rat under this treatment was thus 30 mg/kg/day. Specifically for drug admixture into diet, drug was solubilized in 100% ETOH that was then added to the 16.2 g of food chow. Thereafter, the ETOH was evaporated off. […] Animals were weighed twice weekly and the amount of drug added to the chow was modified accordingly to maintain the daily required dose.
Brain samples were collected at 45 days after 6-OHDA lesioning. Striatal and SNc tissues were weighed and stored at − 80 °C until extraction. The tissues obtained from each animal were homogenized in 0.1 M perchloric acid and centrifuged at 13,000 g for 15 min. DA levels were measured by HPLC with electrochemical detection [47]. The analytical column was a Symmetry C18 3.5 µm (4.6 × 150.0 mm) from Waters (Milford, MA). The mobile phase consisted of 0.01 M sodium dihydrogen phosphate, 0.01 M citric acid, 2 mM sodium EDTA, 1 mM sodium octylsulfate, 10% methanol, pH 3.5 and was used at flow rate of 0.9 ml/min and a temperature of 25 °C. […] DA content was calculated as nmole/g of tissue weight.
The mark [9] stands for this setting: delayed treatment 30 mg/kg daily p.o. from day 7 to 45, rotation on days 20, 30 and 40.
Where [10] appears, read: delayed treatment 30 mg/kg daily p.o. from day 7, day 21.
The mark [11] stands for this setting: early treatment 10 mg/kg daily p.o.
The mark [12] stands for this setting: early treatment 10 mg/kg daily p.o., normalized to non-lesioned side, day 35.

Entries after “also recorded” stand apart in the source; their conditions may differ. Like-named read-outs stand apart in the source and are kept apart here.

For the compound `N[C@@H](CC(=O)N1CCn2c(nnc2C(F)(F)F)C1)Cc1cc(F)c(F)cc1F` [Sitagliptin], the “Meth-induced rotation vs vehicle” value in data set [1] (setting [9]) is listed as “significantly attenuated”. Besides, the “Meth-induced ipsilateral rotation vs vehicle” value in data set [1] is “small but significant difference”. Further, in data set [2] (setting [10]), the “TH cell density in the lesioned SNc vs vehicle” value was “significantly increased” and the “TH pixel density in the lesioned striatum vs vehicle” value (from here on “TH pixel density … vs vehicle”) is “significantly increased”. Also, in data set [2] (setting [11]), the “TH immunoreactivity in the lesioned side SNc vs vehicle” value was “significantly increased” and the “TH immunoreactivity in the non-lesioned side SNc” value was “did not alter”. For the same compound, in data set [2] (setting [12]), the “TH pixel density … vs vehicle” value is “significantly increased”. Further, in data set [3], the “Body weight in 6-OHDA lesioned rats” value was “did not alter body weight”. The “Substrate for the multi-drug resistance transporter P-glycoprotein” value in data set [4] is “substrate”. The “Effects in rat rotenone model of PD” value in data set [5] was “mitigated motor deficits, striatal DA loss, SNc dopaminergic neuronal degeneration and neuroinflammation”. Besides, in data set [6], the Hippocampal neurogenesis entry is listed as “augmented hippocampal neurogenesis”.

For the compound `O=C([C@@H]1C[C@H](N2CCN(c3ncccn3)CC2)CN1)N1CCC(F)(F)C1` [PF-00734,200, Gosogliptin], the concentration at 105 min was 195 ± 34.9 nM in data set [7] (brain, rat brain, 105 min after oral 10 mg/kg, read-out: BrFree (brain free concentration)); 574 ± 103 nM in data set [7] (brain, rat brain, 105 min after oral 10 mg/kg, read-out: BrTotal (brain total concentration)); 922 ± 206 nM in data set [7] (plasma, rat plasma, 105 min (predicted Cmax) after oral 10 mg/kg, n = 5 to 6, read-out: PlTotal (plasma total concentration)); 830 ± 185 nM in data set [7] (plasma, rat plasma, 105 min after oral 10 mg/kg, read-out: PlFree (plasma free concentration)). Moreover, the Kp at 105 min in data set [7] (brain/plasma, 105 min after oral 10 mg/kg, read-out: Br/Pl ratio (Total)) was found to be 0.62. In addition, the “Meth-induced rotation vs vehicle” value is recorded as “significantly attenuated” in data set [1] (setting [9]) and “no different from similarly vehicle-treated animals” in data set [1] (i.c.v. 15.4 nmole 10 min prior to 6-OHDA lesioning, evaluated on day 30). The “Meth-induced rotational behavior vs vehicle” value in data set [1] (delayed treatment, low dose 10 mg/kg daily p.o. from day 7) is on record as “did not alter rotational behavior”. Besides, in data set [1], the “Meth-induced ipsilateral rotation vs vehicle” value was “significantly reduced”. Further, the “TH cell density in the lesioned SNc vs vehicle” value in data set [2] (setting [10]) was “significantly increased”. The “TH pixel density … vs vehicle” value is “a trend, but not a statistically significant” in data set [2] (setting [10]) and “significantly increased” in data set [2] (setting [12]). The “TH immunoreactivity in the lesioned side SNc vs vehicle” value in data set [2] (setting [11]) is reported as “significantly increased”. Further, the “TH immunoreactivity in the non-lesioned side SNc” value in data set [2] (setting [11]) is on record as “did not alter”. For the same compound, the “TH immunohistochemistry in striatum and SNc vs vehicle” value in data set [2] (i.c.v. 15.4 nmole 10 min prior to 6-OHDA lesioning) is “lack of neuroprotection; also recorded: no different from similarly vehicle-treated animals”. In addition, the “DA levels in SNc or striatum vs vehicle” value in data set [8] (10 mg/kg) is on record as “not significantly altered”; in data set [8] (listed as PF‐00734,200, 10 mg/kg), “did not alter DA level”. Besides, the “Body weight in 6-OHDA lesioned rats” value in data set [3] is given as “did not alter body weight”.

Source of the values: publication PMC11336009 (GeroScience, 2024).
